By IC50 is commonly meant the concentration that gives 50% inhibition. Higher therefore signals lower potency.

The values that follow come from patent publication US20210253642A1, “CALPAIN MODULATORS AND THERAPEUTIC USES THEREOF BACKGROUND” (Blade Therapeutics, Inc., priority 2018, published 2021).

Holding throughout (type): biochemical
One experiment addresses T1, Human Calpain 2/NS1 (Homo sapiens, UniProt P17655).
T1 sequence (P17655 1-700): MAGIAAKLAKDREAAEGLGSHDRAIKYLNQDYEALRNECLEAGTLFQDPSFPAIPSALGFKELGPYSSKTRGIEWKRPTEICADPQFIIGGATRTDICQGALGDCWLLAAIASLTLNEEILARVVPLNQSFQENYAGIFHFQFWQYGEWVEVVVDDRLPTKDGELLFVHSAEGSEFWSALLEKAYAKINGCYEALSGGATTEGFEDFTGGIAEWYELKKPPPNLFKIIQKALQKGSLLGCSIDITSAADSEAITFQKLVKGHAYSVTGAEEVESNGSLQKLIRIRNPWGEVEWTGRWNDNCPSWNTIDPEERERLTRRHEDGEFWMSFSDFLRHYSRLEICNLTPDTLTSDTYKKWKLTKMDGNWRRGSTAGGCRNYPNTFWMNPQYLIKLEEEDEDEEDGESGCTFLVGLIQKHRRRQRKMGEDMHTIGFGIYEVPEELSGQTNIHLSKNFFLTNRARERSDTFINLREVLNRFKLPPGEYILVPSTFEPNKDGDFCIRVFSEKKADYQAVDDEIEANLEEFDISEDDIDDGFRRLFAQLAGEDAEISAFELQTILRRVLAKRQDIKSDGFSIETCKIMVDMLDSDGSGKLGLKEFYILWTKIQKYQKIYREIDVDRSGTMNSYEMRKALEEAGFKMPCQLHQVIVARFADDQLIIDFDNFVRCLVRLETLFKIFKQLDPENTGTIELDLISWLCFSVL
T1 sequence (P04632 1-268 partner): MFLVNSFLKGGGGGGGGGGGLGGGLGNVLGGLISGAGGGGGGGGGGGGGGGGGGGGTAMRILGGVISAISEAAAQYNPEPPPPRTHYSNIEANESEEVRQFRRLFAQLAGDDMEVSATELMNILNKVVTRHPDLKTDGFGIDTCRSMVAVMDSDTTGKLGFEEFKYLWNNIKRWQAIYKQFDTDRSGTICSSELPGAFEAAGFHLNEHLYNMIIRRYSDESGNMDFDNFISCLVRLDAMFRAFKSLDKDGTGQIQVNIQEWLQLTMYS
Put plainly: Calpain continuous fluorescence (FRET) inhibition assay. The note with it: Column B; SensoLyte 520 FRET substrate, pH 7.5, 25C. The protocol: (§1) Calpain 1, 2, and 9 activity and inhibition thereof was assessed by means of a continuous fluorescence assay. The SensoLyte 520 Calpain substrate (Anaspec Inc.) was optimized for detecting calpain activity. This substrate contains an internally quenched 5-FAM/QXLTM 520 FRET pair. Calpains 1, 2, and 9 cleave the FRET substrate into two separate fragments resulting in an increase of 5-FAM fluorescence that is proportional to calpain activity
(§2) Assays were typically setup in black 384-well plates using automated liquid handling as follows. Calpain assay base buffer typically contains 50 mM Tris, pH 7.5, 100 mM NaCl and 1 mM DTT. Inhibitors were serially diluted in DMSO and used to setup 2× mixtures with calpains in the aforementioned buffer. After incubation at ambient temperature (25C), the reaction was initiated by adding a 2× mix of the fluorescent peptide substrate and CaCl2) (required for in-situ calpain activation) in the same buffer. Reaction progress curve data were typically collected for 10 min using excitation/emission wavelengths of 490 nm/520 nm on SpectraMax i3x or the FLIPR-Tetra plate readers (Molecular Devices Inc.). Reaction rates were calculated from progress curve slopes typically over 1-5 min. Dose response curves (rate vs. log inhibitor concentration) were typically fit to a 4-parameter logistic function to extract IC50 values.

The next experiment deals with T2, Human Calpain 9/NS1 (Homo sapiens, UniProt O14815).
T2 sequence (O14815 1-690): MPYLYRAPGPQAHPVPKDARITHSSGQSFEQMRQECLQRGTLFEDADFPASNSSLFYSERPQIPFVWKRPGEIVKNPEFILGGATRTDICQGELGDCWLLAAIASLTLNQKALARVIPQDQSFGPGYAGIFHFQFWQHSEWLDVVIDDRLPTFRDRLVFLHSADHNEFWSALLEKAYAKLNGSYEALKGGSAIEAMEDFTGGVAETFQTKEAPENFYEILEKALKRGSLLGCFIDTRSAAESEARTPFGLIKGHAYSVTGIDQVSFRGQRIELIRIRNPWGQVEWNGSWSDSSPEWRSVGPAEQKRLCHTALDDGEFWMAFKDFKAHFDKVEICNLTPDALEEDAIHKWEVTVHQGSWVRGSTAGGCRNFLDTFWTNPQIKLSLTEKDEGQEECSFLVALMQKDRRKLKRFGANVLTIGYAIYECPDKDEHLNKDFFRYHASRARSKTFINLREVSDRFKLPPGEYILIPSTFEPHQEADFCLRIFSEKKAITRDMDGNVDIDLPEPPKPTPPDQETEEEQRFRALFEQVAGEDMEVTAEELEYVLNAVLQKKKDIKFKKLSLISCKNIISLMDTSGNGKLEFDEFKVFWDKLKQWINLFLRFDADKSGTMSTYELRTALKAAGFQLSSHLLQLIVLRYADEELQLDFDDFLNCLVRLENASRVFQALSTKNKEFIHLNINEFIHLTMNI
T2 sequence (P04632 1-268 partner): T1 sequence (P04632 1-268 partner)
The description is as above. The note with it: Column C; SensoLyte 520 FRET substrate, pH 7.5, 25C. The protocol: as §1, §2

The next experiment concerns the target T3, Human Calpain 1/NS1 (Homo sapiens, UniProt P07384).
T3 sequence (P07384 1-714): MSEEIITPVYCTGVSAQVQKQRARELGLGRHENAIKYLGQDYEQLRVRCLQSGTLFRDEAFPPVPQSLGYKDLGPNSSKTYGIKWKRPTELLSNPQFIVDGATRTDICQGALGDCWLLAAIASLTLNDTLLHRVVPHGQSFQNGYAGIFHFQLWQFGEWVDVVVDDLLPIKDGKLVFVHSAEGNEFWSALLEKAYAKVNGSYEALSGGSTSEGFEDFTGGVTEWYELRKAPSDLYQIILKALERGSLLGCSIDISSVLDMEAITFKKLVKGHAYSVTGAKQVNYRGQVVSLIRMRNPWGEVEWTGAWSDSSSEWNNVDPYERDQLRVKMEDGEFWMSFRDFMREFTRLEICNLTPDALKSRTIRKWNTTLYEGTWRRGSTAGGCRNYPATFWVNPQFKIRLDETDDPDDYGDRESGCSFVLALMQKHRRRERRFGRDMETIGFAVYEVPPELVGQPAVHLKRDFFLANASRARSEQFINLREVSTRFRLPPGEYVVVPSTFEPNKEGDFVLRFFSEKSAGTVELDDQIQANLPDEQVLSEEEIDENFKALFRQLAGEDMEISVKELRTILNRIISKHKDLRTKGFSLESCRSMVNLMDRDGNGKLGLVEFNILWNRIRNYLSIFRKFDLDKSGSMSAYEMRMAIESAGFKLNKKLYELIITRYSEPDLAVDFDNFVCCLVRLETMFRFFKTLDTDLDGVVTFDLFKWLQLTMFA
T3 sequence (P04632 1-268 partner): T1 sequence (P04632 1-268 partner)
Described as above. To be noted: Column A; SensoLyte 520 FRET substrate, pH 7.5, 25C. The procedure:
as §1, §2

In a further experiment the target is T4, Human Cathepsin L (Homo sapiens, UniProt P07711).
T4 construct: purchased
Put plainly: Cathepsin continuous fluorescence inhibition assay. To be noted: Column G; enzyme 0.025 nM, substrate 1 uM, pH 6.0, 30 minutes pre-incubation with inhibitor. The procedure: (§3) Cathepsin activity and inhibition thereof was assessed by means of a continuous fluorescence assay. All assays were run in 384 well format and utilized peptide substrates that liberate fluorescence upon protease catalyzed cleavage. FLIPR plate readers (Molecular Devices Inc.) were used to monitor reactions and extract initial rates which were then fit (four parameter logistic function) to obtain IC50 values. All enzymes are human. All enzymes and reagents were obtained commercially and are summarized in Tables 1 and 2 below along with assay conditions.

For the next experiment, the target named is T5, Human Cathepsin S (Homo sapiens, UniProt P25774).
T5 construct: purchased
Nature of the experiment: Cathepsin continuous fluorescence inhibition assay. The note with it: Column F; enzyme 6 nM, substrate 1 uM, pH 4.5, 30 minutes pre-incubation with inhibitor. The procedure: as §3

A further experiment deals with T6, Human Cathepsin K (Homo sapiens, UniProt P43235).
T6 construct: purchased
T6 sequence (P43235 115-329): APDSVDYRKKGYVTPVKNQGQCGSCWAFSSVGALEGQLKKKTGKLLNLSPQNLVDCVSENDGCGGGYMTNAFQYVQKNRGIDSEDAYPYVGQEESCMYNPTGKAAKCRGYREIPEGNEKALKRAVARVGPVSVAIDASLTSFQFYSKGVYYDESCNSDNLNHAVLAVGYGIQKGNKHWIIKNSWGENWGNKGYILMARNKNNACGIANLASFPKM
Nature of the experiment: Cathepsin continuous fluorescence inhibition assay. The note with it: Column E; enzyme 10 nM, substrate 1 uM, pH 5.5, 30 minutes pre-incubation with inhibitor. The protocol: as §3

The target of a further experiment is T7, Human Cathepsin B (Homo sapiens, UniProt P07858).
T7 construct: purchased
Put plainly: Cathepsin continuous fluorescence inhibition assay. To be noted: Column D; enzyme 25 nM, substrate 1 uM, pH 5.0, 30 minutes pre-incubation with inhibitor. The protocol: as §3

T4 sequence (P07711 114-333): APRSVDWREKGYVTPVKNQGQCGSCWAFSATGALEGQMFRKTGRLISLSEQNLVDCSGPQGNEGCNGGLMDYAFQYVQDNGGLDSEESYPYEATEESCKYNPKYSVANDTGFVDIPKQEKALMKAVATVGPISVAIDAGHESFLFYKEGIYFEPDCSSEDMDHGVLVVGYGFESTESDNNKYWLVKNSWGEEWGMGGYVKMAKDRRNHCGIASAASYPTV
T5 sequence (P25774 115-331): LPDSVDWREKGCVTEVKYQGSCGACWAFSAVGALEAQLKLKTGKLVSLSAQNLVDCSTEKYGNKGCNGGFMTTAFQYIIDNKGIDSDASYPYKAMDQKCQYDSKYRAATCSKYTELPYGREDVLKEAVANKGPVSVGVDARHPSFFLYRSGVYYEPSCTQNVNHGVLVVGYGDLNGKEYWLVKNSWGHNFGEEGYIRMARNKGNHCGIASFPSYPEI

For `CC(C)[C@@H]1NC(=O)/C=C/[C@@H](NC(=O)[C@@H](NC(=O)CNC(=O)OC(C)(C)C)C(C)C)COC(=O)[C@H](Cc2ccc(O)cc2)NC1=O` [Compound 7, tert-butyl (2-(((s)-1-(((3S,6S,11R,E)-3-(4-hydroxybenzyl)-6-isopropyl-2,5,8-trioxo-1-oxa-4,7-diazacyclododec-9-en-11-yl)amino)-3-methyl-1-oxobutan-2-yl)amino)-2-oxoethyl)carbamate], the IC50 was 3 to 10 µM at Human Calpain 2/NS1; above 10 µM on Human Calpain 9/NS1; 3 to 10 µM at Human Calpain 1/NS1; below 3 µM on Human Cathepsin L; below 3 µM on Human Cathepsin S; below 3 µM against Human Cathepsin K. The same compound yielded an IC50 at Human Cathepsin B below 3 µM.
For the compound `CC(C)[C@@H]1NC(=O)/C=C/[C@@H](NC(=O)CNC(=O)[C@H](Cc2ccc(O)cc2)NC(=O)OC(C)(C)C)COC(=O)[C@H](Cc2ccc(O)cc2)NC1=O` [Compound 8, tert-butyl ((s)-1-((2-(((3S,6S,11R,E)-3-(4-hydroxybenzyl)-6-isopropyl-2,5,8-trioxo-1-oxa-4,7-diazacyclododec-9-en-11-yl)amino)-2-oxoethyl)amino)-3-(4-hydroxyphenyl)-1-oxopropan-2-yl)carbamate], the 50% inhibitory concentration (IC50) against Human Calpain 2/NS1 is above 10 µM; against Human Calpain 9/NS1 it was above 10 µM; at Human Calpain 1/NS1 it was above 10 µM; against Human Cathepsin L, below 3 µM; against Human Cathepsin S, below 3 µM; on Human Cathepsin K it was below 3 µM. Further, the IC50 against Human Cathepsin B was below 3 µM.
Take `CC(C)[C@@H]1NC(=O)/C=C/[C@@H](NC(=O)[C@@H](NC(=O)OCc2ccccc2)C(C)C)COC(=O)[C@H](Cc2ccc(O)cc2)NC1=O` [Compound 9, Benzyl ((s)-1-(((3S,6S,11R,E)-3-(4-hydroxybenzyl)-6-isopropyl-2,5,8-trioxo-1-oxa-4,7-diazacyclododec-9-en-11-yl)amino)-3-methyl-1-oxobutan-2-yl)carbamate]: the IC50 against Human Calpain 2/NS1 is below 3 µM; against Human Calpain 9/NS1, above 10 µM; against Human Calpain 1/NS1 it was 3 to 10 µM; on Human Cathepsin L, below 3 µM; at Human Cathepsin S it was below 3 µM; on Human Cathepsin K it was below 3 µM. Also, at Human Cathepsin B, the IC50 is below 3 µM.
With `CCCCCC/C=C\CC(=O)NCC(=O)N[C@H](C(=O)N[C@@H]1/C=C/C(=O)N[C@@H](C(C)C)C(=O)N[C@@H](Cc2ccc(O)cc2)C(=O)OC1)C(C)C` [Compound 10, (Z)—N-(2-(((S)-1-(((3S,6S,11R,E)-3-(4-hydroxybenzyl)-6-isopropyl-2,5,8-trioxo-1-oxa-4,7-diazacyclododec-9-en-11-yl)amino)-3-methyl-1-oxobutan-2-yl)amino)-2-oxoethyl)dec-3-enamide], the IC50 is below 3 µM at Human Calpain 2/NS1; above 10 µM at Human Calpain 9/NS1; below 3 µM at Human Calpain 1/NS1; below 3 µM on Human Cathepsin L; below 3 µM on Human Cathepsin S; below 3 µM at Human Cathepsin K. The compound further displayed an IC50 on Human Cathepsin B below 3 µM.
As to `CCCCCC/C=C\CC(=O)N[C@@H](Cc1ccc(O)cc1)C(=O)N[C@H](C(=O)N[C@@H]1/C=C/C(=O)N[C@@H](C(C)C)C(=O)N[C@@H](Cc2ccc(OC)cc2)C(=O)OC1)C(C)C` [Compound 11, (Z)—N—((S)-3-(4-hydroxyphenyl)-1-(((S)-1-(((3S,6S,11R,E)-6-isopropyl-3-(4-methoxybenzyl)-2,5,8-trioxo-1-oxa-4,7-diazacyclododec-9-en-11-yl)amino)-3-methyl-1-oxobutan-2-yl)amino)-1-oxopropan-2-yl)dec-3-enamide], the half-maximal inhibitory concentration (IC50) is below 3 µM on Human Calpain 2/NS1; above 10 µM at Human Calpain 9/NS1; below 3 µM on Human Calpain 1/NS1; below 3 µM at Human Cathepsin L; below 3 µM on Human Cathepsin S; below 3 µM against Human Cathepsin K. In addition, the IC50 against Human Cathepsin B is below 3 µM.
Take `CC(C)C[C@H](NC(=O)OC(C)(C)C)C(=O)N[C@@H]1/C=C/C(=O)N[C@@H](C(C)C)C(=O)N[C@@H](Cc2ccc(O)cc2)C(=O)OC1` [Compound 12, tert-butyl ((S)-1-(((3S,6S,11R,E)-3-(4-hydroxybenzyl)-6-isopropyl-2,5,8-trioxo-1-oxa-4,7-diazacyclododec-9-en-11-yl)amino)-4-methyl-1-oxopentan-2-yl)carbamate]: the IC50 on Human Calpain 2/NS1 is below 3 µM; against Human Calpain 9/NS1 it was above 10 µM; on Human Calpain 1/NS1, below 3 µM; against Human Cathepsin L, below 3 µM; against Human Cathepsin S, below 3 µM; against Human Cathepsin K, below 3 µM. At Human Cathepsin B, the IC50 was below 3 µM.
